As a reminder, the IC50 is the point on the concentration scale where inhibition reaches its midpoint. A word on the EC50: it is the concentration that produces a half-maximal response. The inhibition is the relative decrease from the control value, in per cent. Low values mean a response near the control, high ones a response far below the control.

A value given as a limit tells only on which side of the number the result lay.

One experiment addresses T1, human COX-1 (Homo sapiens, UniProt P23219).
T1 construct: purchased CEREP Laboratories (contract assay); host or cells: Sf-9
Nature of the experiment: Cyclooxygenase assay (CEREP), PGE2 formation. Conditions: recombinant enzyme, 4 μM arachidonic acid. The class given is biochemical.

The target in the next experiment is GST-Rac1 (Homo sapiens, UniProt P63000). Nature of the experiment: In vitro nucleotide binding assay on individual GTPase (13 µm GSH beads). Conditions: GST-Rac1 and GST-Cdc42; BODIPY-GTP 300 nM.
For the next experiment, the target named is Rab2 (Homo sapiens, UniProt P61019). The experiment is described as follows: Dose response, BODIPY-GTP binding. Conditions: 10 nM to 100 µM.
The target of experiment [1] is Cdc42Q61L activating mutant (Homo sapiens, UniProt P60953, Q61L). The experiment is described as follows: Dose response, BODIPY-GTP binding.
The target of a further experiment is H-Ras wt (Homo sapiens, UniProt P01112). The experiment is described as follows: Dose response, BODIPY-GTP binding. Conditions: 10 nM to 100 µM. On the procedure:
(§1) For multiplex analyses of small GTPases, 4 μm diameter glutathione-beads (GSH-beads) distinguished by seven different intensities of red fluorescence were used according to our previously described protocols. The GST-GTPases included the following eight Ras-related small GTPases: Rab2 wt, Rab7 wt, Cdc42 wt, Cdc42Q61L activating mutant, H-Ras wt, H-RasG12V, Rac1 wt and Rac1Q61L activating mutant. Briefly, Prestwick Chemical Library® compounds were tested at 10 μM compound and 1% DMSO final concentrations. After a 10 min pre-incubation with the compound BODIPY- FL-GTP (100 nM final) was added to each well and bead associated fluorescence was measured. Sample analysis was conducted with a HyperCyt® high throughput flow cytometry platform. Flow cytometric light scatter at 488 nm and fluorescence emission at 530 +/− 20 nm (FL1) and 665 +/− 10 nm (FL8) were collected on a Cyan ADP flow cytometer (Beckman Coulter, Fullerton, CA). IDLQuery software was used to determine the compound activity in each well. Gating based on forward scatter (FS) and side scatter (SS) parameters was used to identify singlet bead populations. Gating based on FL8 emission distinguishes the beads coated with different proteins, and the median FL1 fluorescence per bead population were calculated. A compound was considered a “potential active” if the change in BODIPY-FL-GTP binding differed greater than 20% from that measured in DMSO treated controls.
(§2) Test compounds identified for follow-up after the primary screen were tested at dilutions ranging from 10 nM to 100 μM final concentration against individual GTPases in multiplex and single-plex assays. Compounds tested in dose response assays were serially diluted 1:3 a total of eight times from a starting concentration of 10 mM giving a 9-point dilution series in DMSO.
(§3) bConfirmatory screens entailed dose response assays conducted in a multiplex format with eight GTPases tested as for primary screen. BODIPY-GTP-binding activity was
(§4) measured in the presence of 10 nM to 100 µM of each of 11 test compounds (4 primary screen hits and 7 additional NSAIDs considered to have chemical similarity to GTPase
(§5) active compounds). GST-GFP coated beads served as a control to detect non-specific dissociation or denaturation caused by compound addition–none of the tested NSAIDs had
(§6) any effect on bead-GST-protein binding. EC50 values were determined using Prism to determine dose response fits as shown in Figure 1 of main text; fits have R2 > 0.9. Active
(§7) compounds based on same definition used as in primary screena. […]

In a further experiment the target is T2, Cdc42 (Homo sapiens, UniProt P60953).
T2 construct: endogenous in cells; host or cells: HeLa
The experiment is described as follows: G-trap flow cytometric effector binding assay, HeLa cells. It is filed as cell-based.

The subject of experiment [2] is Tiam1 membrane localization. The experiment is described as follows: Tiam1 immunolocalization, OvCa433 cells. It is filed as cell-based, human. On the procedure: OvCa433 were plated on coverslips, treated with 300 μM NSAIDs for 1 h, fixed with 3% paraformaldehyde and immunostained for Rac1 or Tiam1. Actin was visualized with rhodamine phalloidin from Invitrogen (F432). Cells were imaged on a Zeiss LSM510 using a 63x objective and quantified using Image J.
Rac1 and Tiam1 antibodies were confirmed in our hands to recognize single protein species of the predicted molecular weight by immunoblot.

For another experiment, the target named is Rab7 (Homo sapiens, UniProt P51149). The experiment is described as follows: Dose response, BODIPY-GTP binding. The conditions noted are these: 10 nM to 100 µM.
Another experiment deals with H-RasG12V (Homo sapiens, UniProt P01112, G12V). Nature of the experiment: Dose response, BODIPY-GTP binding. The conditions noted are these: 10 nM to 100 µM. As to the method: as §1, §2, §3, §4, §5, §6, §7
‡A well-characterized selective Cdc42 inhibitor served as a positive control.

The next experiment has as its target T3, Rac1 (Mus musculus, UniProt P63001).
T3 construct: endogenous in cells; host or cells: Swiss 3T3
The experiment is described as follows: GLISA, Swiss 3T3 cells. The class given is cell-based.

Another experiment addresses T4, human COX-2 (Homo sapiens, UniProt P35354).
T4 construct: purchased CEREP Laboratories (contract assay); host or cells: Sf-9
T4 sequence (P35354 18-604): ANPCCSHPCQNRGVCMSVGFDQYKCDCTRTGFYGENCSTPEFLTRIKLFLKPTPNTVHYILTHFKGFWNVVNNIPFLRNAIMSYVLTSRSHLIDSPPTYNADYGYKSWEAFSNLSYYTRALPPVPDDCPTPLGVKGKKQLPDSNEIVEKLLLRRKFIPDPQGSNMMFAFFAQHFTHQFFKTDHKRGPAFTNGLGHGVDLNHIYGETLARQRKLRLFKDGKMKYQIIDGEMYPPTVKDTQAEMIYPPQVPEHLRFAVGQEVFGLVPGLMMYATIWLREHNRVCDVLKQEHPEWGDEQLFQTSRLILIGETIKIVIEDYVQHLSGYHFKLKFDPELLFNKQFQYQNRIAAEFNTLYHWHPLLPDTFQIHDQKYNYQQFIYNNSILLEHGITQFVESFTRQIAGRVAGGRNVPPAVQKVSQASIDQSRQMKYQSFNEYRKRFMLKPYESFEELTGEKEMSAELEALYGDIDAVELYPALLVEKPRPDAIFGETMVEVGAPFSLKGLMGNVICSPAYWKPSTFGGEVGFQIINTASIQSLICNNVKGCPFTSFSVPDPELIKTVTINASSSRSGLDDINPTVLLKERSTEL
The experiment is described as follows: Cyclooxygenase assay (CEREP), PGE2 formation. The class given is biochemical. Conditions: recombinant enzyme, 4 μM arachidonic acid.

Chain of Cdc42Q61L activating mutant (P60953 whole entry Q61L): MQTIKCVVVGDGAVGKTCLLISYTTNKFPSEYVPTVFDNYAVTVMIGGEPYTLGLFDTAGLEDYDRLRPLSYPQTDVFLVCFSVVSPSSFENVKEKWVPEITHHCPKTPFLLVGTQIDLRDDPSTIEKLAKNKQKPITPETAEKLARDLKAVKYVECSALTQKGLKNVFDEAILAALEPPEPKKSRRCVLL
Chain of Rab7 (P51149 whole entry, species assumed): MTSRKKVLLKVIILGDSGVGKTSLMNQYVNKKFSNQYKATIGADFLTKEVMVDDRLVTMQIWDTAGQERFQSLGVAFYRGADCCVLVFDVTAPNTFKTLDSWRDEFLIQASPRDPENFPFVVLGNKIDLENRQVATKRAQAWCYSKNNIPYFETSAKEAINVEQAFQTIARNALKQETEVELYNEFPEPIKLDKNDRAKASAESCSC
T2 sequence (P60953 whole entry): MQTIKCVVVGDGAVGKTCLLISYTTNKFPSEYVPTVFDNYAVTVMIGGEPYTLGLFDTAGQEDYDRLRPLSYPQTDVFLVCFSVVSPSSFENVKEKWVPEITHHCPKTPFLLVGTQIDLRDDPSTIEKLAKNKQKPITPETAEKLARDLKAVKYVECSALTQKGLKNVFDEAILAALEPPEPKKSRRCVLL
Chain of Rab2 (P61019 whole entry, species assumed): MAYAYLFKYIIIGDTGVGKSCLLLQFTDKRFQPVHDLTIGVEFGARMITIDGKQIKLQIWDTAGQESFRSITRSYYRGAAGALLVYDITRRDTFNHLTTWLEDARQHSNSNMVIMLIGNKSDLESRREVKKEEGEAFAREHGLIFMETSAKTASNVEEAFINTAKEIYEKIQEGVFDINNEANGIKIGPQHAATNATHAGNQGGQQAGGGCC
T1 sequence (P23219 24-599): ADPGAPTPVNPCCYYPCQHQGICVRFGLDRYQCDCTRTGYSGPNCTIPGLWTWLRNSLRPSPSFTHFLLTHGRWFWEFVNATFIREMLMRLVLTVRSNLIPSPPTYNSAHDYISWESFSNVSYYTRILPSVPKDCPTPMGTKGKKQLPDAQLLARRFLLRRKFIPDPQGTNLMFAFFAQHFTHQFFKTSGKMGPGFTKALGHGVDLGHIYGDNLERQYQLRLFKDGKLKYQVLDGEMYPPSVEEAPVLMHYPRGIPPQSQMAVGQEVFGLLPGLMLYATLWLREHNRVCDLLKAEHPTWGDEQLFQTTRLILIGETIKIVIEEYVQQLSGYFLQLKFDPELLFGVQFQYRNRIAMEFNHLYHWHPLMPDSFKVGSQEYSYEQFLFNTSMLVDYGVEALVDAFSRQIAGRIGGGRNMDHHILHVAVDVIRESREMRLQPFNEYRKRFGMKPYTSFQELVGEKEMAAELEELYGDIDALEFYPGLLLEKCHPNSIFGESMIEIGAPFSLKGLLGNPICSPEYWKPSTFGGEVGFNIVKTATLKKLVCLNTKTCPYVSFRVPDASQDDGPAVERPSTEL

For `COc1ccc2cc(CC(=O)O)ccc2c1` [6-MNA, 6-methoxy-2-napthalene acetic acid], the 50% inhibitory concentration (IC50) on human COX-1 is 28 µM; on human COX-2, over 100 µM. On GST-Rac1, the “inhibition of BODIPY-GTP binding” value was “inactive”. Further, the “Rab2 EC50” value at Rab2 is “inactive”. For the same compound, the “activity against the constitutively active Cdc42 mutant” value in experiment [1] is on record as “weak activity”. Also, the 50% effective concentration (EC50) in [1] (10 nM to 100 µM, read-out: Cdc42 (act) EC50) is 12.3 µM. The “H-Ras wt EC50” value on H-Ras wt was “inactive”. The “fold lower potency than R-naproxen, Cdc42” value at Cdc42 was found to be 3 fold. In addition, the “Tiam1 membrane localization” value in experiment [2] (300 μM) was “only slightly reduced”. For the same compound, the “Tiam1 GEF PM localiz.” value in experiment [2] (immunofluorescence quantified using ImageJ) amounted to 73%. Besides, on Rab7, the “Rab7 EC50” value was “inactive”. On H-RasG12V, the “H-Ras (act) EC50” value is “inactive”. Also, the “EGF-mediated Rac1 activation” value at Rac1 (300 μM, 15 min or 1 h (either time point)) is listed as “no inhibitory effect”. The inhibition at 300 µM against Rac1 (Swiss-3T3, at 300 µM) is 0%.

Source of the values: article PMC4641600, “Novel Activities of Select NSAID R-Enantiomers against Rac1 and Cdc42 GTPases” (PLoS ONE, 2015).
